Test [1] addresses T1, [MCL-1]-[compound of formula (I)]-[CRBN/DDB1] complex (Homo sapiens, UniProt Q07820+Q96SW2). Description: HTRF ternary complex assay. The class given is binding. The note with it: ternary complex formation; read-out: HTRF ternary complex Average pEC50 by molecule (converted). The procedure:
The effect of the bifunctional compounds of the invention on the formation of a ternary complex composed of [MCL-1]-[compound of formula (I)]-[CRBN/DDB1] was investigated.
Mix of protein solution were prepared: • 48 nM hMcl-1 and 105.6 nM CRBN was prepared in PPI Europium detection buffer with 2 mM DTT. • Acceptor and donor stock solutions were diluted 100 times in PPI Europium detection buffer. Equal volumes of both reagents were mixed. Finally giving 3 nM of Streptavidin-Eu cryptate […] and 6.67 nM of Anti-6× his-d2 […].
5 μl of protein mix was dispensed to all wells. The tested compounds in dose-response were dispensed onto a white 384-well low volume plate (Greiner, 784075). DMSO was backfilled to all wells, resulting in a final DMSO content of 0.5%. Wells containing only DMSO served as background. Next, 5 μl of solution with donor and acceptor was added to the wells.
The plate was sealed with transparent film and shaken using a VibroTurbulator for 60 see at level 3. The plate was then spun down shortly (10 s, 1000 rcf) and incubated at 25° C. for 180 min.
The read-out was performed with plate reader (Pherastar, BMG Labtech) in time resolved fluorescence mode. Filterset: TR 337 665 620.
The results were analyzed as follows: • 1) an average of fluorescence for background signal was calculated and used as a negative control; • 2) raw fluorescence values for tested compounds were normalized against negative controls; • 3) bell shape curve was fitted to a gaussian distribution using a non-linear least squares Gauss-Newton algorithm; • 4) EC50 and pEC50 values were determined.
For orientation: TR-FRET usually uses a lanthanide donor and a delayed reading to cut background.

Test [2] addresses T1, [MCL-1]-[compound of formula (I)]-[CRBN/DDB1] complex. Description: AlphaLISA dose response ternary complex formation assay. The note with it: read-out: AlphaLISA dose response Average pEC50 by molecule (converted). The class given is binding. The essentials: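 EC50 comes from dose–response of AlphaLISA luminescence (excitation 680, emission 615 nm), normalised between DMSO background and an internal positive control, with concentrations past the hook point dropped. Ternary complex formed by mixing bead-bound biotin-hMCL-1 and His-CRBN/DDB1 (protein solutions 40 and 200 nM) with compound in 2% DMSO, 30 min, 25 °C.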
(In general: Alpha assays give light when donor and acceptor beads are brought close together.)

The next test deals with MV-4-11 cells. Description: Cell viability assay (CellTiter-Glo), MV-4-11. Format: cell-based. Conditions: Homo sapiens, MV4-11, 24 hours incubation, 1% FBS, read-out: Average pIC50 by molecule MV-4-11 (converted). The essentials:
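OPM-2, MV-4-11 and ARH-77 cells were grown in medium with 1% FBS and treated with compound in 1/3 dilutions from 30 uM (9–12 points, 0.5% DMSO). Viability was read by CellTiter-Glo luminescence after 24 hours and normalized to DMSO control.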
(In general: In ATP-based viability assays light output follows the ATP content of the culture.)

A further test concerns ARH-77 cells. Description: Cell viability assay (CellTiter-Glo), ARH-77. Format: cell-based. Conditions: Homo sapiens, ARH-77, 24 hours incubation, 1% FBS, read-out: Average pIC50 by molecule ARH-77 (converted). The text has this:
The effect of various compounds of the invention on the viability of OPM-2, MV-4-11 and ARH-77 cell lines was investigated, using the CTG protocol described below.
OPM-2 and MV-4-11 cell lines are derived from multiple myeloma and acute myeloid leukaemia, respectively. Both cell lines are described in the literature as MCL-1 dependent lines, as opposed to lymphoblast-like ARH-77 cell line, which is described as independent of MCL-1 (Tron A E et al. Nat Commun. 2018; 9: 5341; Caenepeel S et al. Cancer Discov. 2018 December; 8(12):1582-1597).
Cells (OPM-2, MV-4-11 or ARH-77) were seeded on […] in a growth medium with FBS reduced to 1%. Next, compound stocks were pre-diluted in DMSO and added directly to the cells growth medium (final DMSO concentration: 0.5%). Compound concentrations used in this assay: 1/3 dilutions starting at 30 uM (9 to 12 points).
After 24 hours of incubation, cell viability was evaluated using CellTiter-Glo Luminescent Cell Viability Assay (Promega, cat #G7572). Luminescence signal was measured using a CLARIOstar Plus Multi-Mode Microplate Reader (574-590 nm).
Results were normalized to DMSO control.

Each structure is given as a SMILES string. A value given as a limit tells only on which side of the number the result lay.

Here are results for 11 compounds from patent publication US20240294499A1, “TARGETED PROTEIN DEGRADATION USING BIFUNCTIONAL COMPOUNDS THAT BIND UBIQUITIN LIGASE AND TARGET MCL-1 PROTEIN” (Captor Therapeutics S.A., priority 2021, published 2024).

T1 sequence (Q07820 whole entry): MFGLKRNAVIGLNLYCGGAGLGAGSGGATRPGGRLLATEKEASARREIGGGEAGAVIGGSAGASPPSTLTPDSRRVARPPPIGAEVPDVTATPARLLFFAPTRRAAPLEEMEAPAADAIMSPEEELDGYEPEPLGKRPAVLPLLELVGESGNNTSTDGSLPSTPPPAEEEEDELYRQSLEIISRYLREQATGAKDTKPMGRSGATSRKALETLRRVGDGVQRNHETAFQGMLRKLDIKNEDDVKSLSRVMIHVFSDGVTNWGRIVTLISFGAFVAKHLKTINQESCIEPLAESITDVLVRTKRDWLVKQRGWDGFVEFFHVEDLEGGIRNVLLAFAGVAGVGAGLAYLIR
T1 sequence (Q96SW2 whole entry): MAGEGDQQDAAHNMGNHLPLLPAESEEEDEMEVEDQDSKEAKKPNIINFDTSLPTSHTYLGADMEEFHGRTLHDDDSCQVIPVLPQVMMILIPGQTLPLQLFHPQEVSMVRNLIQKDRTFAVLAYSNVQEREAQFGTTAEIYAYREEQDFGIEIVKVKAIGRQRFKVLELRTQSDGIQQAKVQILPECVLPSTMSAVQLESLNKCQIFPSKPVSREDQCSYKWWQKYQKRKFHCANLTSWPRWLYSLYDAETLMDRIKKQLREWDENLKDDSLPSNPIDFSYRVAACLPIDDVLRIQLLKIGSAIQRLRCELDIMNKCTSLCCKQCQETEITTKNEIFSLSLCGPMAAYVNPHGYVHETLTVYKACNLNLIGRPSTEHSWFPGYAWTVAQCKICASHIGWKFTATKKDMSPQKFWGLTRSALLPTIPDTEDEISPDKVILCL
T1 sequence (Q16531 whole entry partner): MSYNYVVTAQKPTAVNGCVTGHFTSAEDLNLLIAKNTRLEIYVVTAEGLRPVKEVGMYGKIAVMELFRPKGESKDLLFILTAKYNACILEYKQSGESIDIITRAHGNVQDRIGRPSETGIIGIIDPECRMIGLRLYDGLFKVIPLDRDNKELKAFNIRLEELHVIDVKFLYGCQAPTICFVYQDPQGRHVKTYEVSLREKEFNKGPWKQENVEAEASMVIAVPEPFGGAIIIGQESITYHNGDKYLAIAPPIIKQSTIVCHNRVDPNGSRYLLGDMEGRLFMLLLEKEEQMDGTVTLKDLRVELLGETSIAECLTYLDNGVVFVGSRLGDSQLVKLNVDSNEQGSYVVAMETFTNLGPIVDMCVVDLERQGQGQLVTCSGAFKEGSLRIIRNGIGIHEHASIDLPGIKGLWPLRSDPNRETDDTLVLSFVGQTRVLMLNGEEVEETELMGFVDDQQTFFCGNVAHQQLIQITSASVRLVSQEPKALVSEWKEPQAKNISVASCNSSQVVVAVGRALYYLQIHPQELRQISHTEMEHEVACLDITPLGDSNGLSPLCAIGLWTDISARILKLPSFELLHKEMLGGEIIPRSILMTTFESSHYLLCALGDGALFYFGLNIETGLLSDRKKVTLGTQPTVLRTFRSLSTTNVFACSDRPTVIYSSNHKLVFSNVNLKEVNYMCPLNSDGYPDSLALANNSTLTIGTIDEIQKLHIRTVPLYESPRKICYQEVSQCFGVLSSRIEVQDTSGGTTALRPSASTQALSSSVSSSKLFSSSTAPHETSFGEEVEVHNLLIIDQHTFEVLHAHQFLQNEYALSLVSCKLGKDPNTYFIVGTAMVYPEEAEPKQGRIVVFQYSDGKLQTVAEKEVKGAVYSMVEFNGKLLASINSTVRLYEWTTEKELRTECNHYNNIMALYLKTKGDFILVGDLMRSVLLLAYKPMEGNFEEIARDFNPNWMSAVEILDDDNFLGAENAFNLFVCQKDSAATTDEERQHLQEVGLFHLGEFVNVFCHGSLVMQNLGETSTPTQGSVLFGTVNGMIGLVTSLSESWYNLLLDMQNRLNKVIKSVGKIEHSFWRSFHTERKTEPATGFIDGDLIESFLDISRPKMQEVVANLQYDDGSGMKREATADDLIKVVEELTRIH

Take `Cc1cc(OCCCc2c(C(=O)NS(=O)(=O)CCNC(=O)CCOCCOCCNc3cccc4c3C(=O)N(C3CCC(=O)NC3=O)C4=O)n(C)c3c(-c4c(C)nn(C)c4C)c(Cl)ccc23)cc(C)c1Cl` (stereo not shown) [Compound 252, 6-chloro-3-(3-(4-chloro-3,5-dimethylphenoxy)propyl)-N-((2-(3-(2-(2-((2-(2,6-dioxopiperidin-3-yl)-1,3-dioxoisoindolin-4-yl)amino)ethoxy)ethoxy)propanamido)ethyl)sulfonyl)-1-methyl-7-(1,3,5-trimethyl-1H-pyrazol-4-yl)-1H-indole-2-carboxamide]: the EC50 in test [1] was less than 0.1 µM.
The same measure, in the same setting: the result for `Cc1nc2cc(OCC(=O)N3CCN(CCn4c(C(=O)O)c(CCCOc5cccc6cc(F)ccc56)c5ccc(Cl)c(-c6c(C)nn(C)c6C)c54)CC3)ccc2cc1C1CCC(=O)NC1=O` (stereo not shown) [Compound 288, 6-Chloro-1-(2-(4-(2-((3-(2,6-dioxopiperidin-3-yl)-2-methylquinolin-7-yl)oxy)acetyl)piperazin-1-yl)ethyl)-3-(3-((6-fluoronaphthalen-1-yl)oxy)propyl)-7-(1,3,5-trimethyl-1H-pyrazol-4-yl)-1H-indole-2-carboxylic acid] reads less than 0.1 µM; that for `Cc1nc2ccc(C(=O)N3CCN(CCn4c(C(=O)O)c(CCCOc5cccc6cc(F)ccc56)c5ccc(Cl)c(-c6c(C)nn(C)c6C)c54)CC3)cc2cc1C1CCC(=O)NC1=O` (stereo not shown) [Compound 290, 6-Chloro-1-(2-(4-(3-(2,6-dioxopiperidin-3-yl)-2-methylquinoline-6-carbonyl)piperazin-1-yl)ethyl)-3-(3-((6-fluoronaphthalen-1-yl)oxy)propyl)-7-(1,3,5-trimethyl-1H-pyrazol-4-yl)-1H-indole-2-carboxylic acid], less than 0.01 µM.
Consider `Cc1nc2cc(C(=O)N3CCN(CCn4c(C(=O)O)c(CCCOc5cccc6cc(F)ccc56)c5ccc(Cl)c(-c6c(C)nn(C)c6C)c54)CC3)ccc2cc1C1CCC(=O)NC1=O` (stereo not shown) [Compound 291, 6-Chloro-1-(2-{4-[3-(2,6-dioxopiperidin-3-yl)-2-methylquinoline-7-carbonyl]piperazin-1-yl}ethyl)-3-{3-[(6-fluoronaphthalen-1-yl)oxy]propyl}-7-(1,3,5-trimethyl-1H-pyrazol-4-yl)-1H-indole-2-carboxylic acid], for which, in test [1], the EC50 was less than 0.1 µM.
Consider `Cc1nn(C)c(C)c1-c1c(Cl)ccc2c(CCCOc3cccc4cc(F)ccc34)c(C(=O)O)n(CCN3CCN(C(=O)[C@@H](C)Oc4cccc5c4C(=O)N(C4CCC(=O)NC4=O)C5=O)CC3)c12` (stereo partly drawn) [Compound 315, 6-Chloro-1-(2-{4-[(2R)-2-{[2-(2,6-dioxopiperidin-3-yl)-1,3-dioxo-2,3-dihydro-1H-isoindol-4-yl]oxy}propanoyl]piperazin-1-yl}ethyl)-3-{3-[(6-fluoronaphthalen-1-yl)oxy]propyl}-7-(1,3,5-trimethyl-1H-pyrazol-4-yl)-1H-indole-2-carboxylic acid], for which the EC50 in test [2] is less than 0.1 µM. Besides, the IC50 in the test on MV-4-11 cells is no more than 0.0316 µM; with ARH-77 cells, greater than 3.16 µM.
Taken in the same sequence, the figures for `Cc1nn(C)c(C)c1-c1c(Cl)ccc2c(CCCOc3cccc4cc(F)ccc34)c(C(=O)O)n(CCCCNC(=O)CNc3cccc4c3C(=O)N(C3CCC(=O)NC3=O)C4=O)c12` (stereo not shown) [Compound 325, 6-Chloro-1-[4-(2-{[2-(2,6-dioxopiperidin-3-yl)-1,3-dioxo-2,3-dihydro-1H-isoindol-4-yl]amino}acetamido)butyl]-3-{3-[(6-fluoronaphthalen-1-yl)oxy]propyl}-7-(1,3,5-trimethyl-1H-pyrazol-4-yl)-1H-indole-2-carboxylic acid] were less than 0.01 µM, no more than 0.1 µM and greater than 10 µM.
Turning to `Cc1nn(C)c(C)c1-c1c(Cl)ccc2c(CCCOc3cccc4cc(F)ccc34)c(C(=O)O)n(CCCOCCOc3cccc4c3CN(C3CCC(=O)NC3=O)C4=O)c12` (stereo not shown) [Compound 329, 6-Chloro-1-[3-(2-{[2-(2,6-dioxopiperidin-3-yl)-1-oxo-2,3-dihydro-1H-isoindol-4-yl]oxy}ethoxy)propyl]-3-{3-[(6-fluoronaphthalen-1-yl)oxy]propyl}-7-(1,3,5-trimethyl-1H-pyrazol-4-yl)-1H-indole-2-carboxylic acid], the EC50 in test [2] is less than 0.1 µM. Further, the IC50 in the test on MV-4-11 cells was no more than 0.316 µM; in the test on ARH-77 cells, greater than 10 µM.
The like results for `Cc1nn(C)c(C)c1-c1c(Cl)ccc2c(CCCOc3cccc4cc(F)ccc34)c(C(=O)O)n(CCN3CCC(CN4CCN(c5cc6c(cc5F)C(=O)N(C5CCC(=O)NC5=O)C6=O)CC4)CC3)c12` (stereo not shown) [Compound 331, 6-Chloro-1-(2-(4-((4-(2-(2,6-dioxopiperidin-3-yl)-6-fluoro-1,3-dioxoisoindolin-5-yl)piperazin-1-yl)methyl)piperidin-1-yl)ethyl)-3-(3-((6-fluoronaphthalen-1-yl)oxy)propyl)-7-(1,3,5-trimethyl-1H-pyrazol-4-yl)-1H-indole-2-carboxylic acid] were, in that order, less than 0.1 µM, no more than 0.316 µM and greater than 10 µM.
With `Cc1nn(C)c(C)c1-c1c(Cl)ccc2c(CCCOc3cccc4cc(F)ccc34)c(C(=O)O)n(CCN3CCC(CN4CCN(c5cccc6c5C(=O)N(C5CCC(=O)NC5=O)C6=O)CC4)CC3)c12` (stereo not shown) [Compound 332, 6-Chloro-1-(2-(4-((4-(2-(2,6-dioxopiperidin-3-yl)-1,3-dioxoisoindolin-4-yl)piperazin-1-yl)methyl)piperidin-1-yl)ethyl)-3-(3-((6-fluoronaphthalen-1-yl)oxy)propyl)-7-(1,3,5-trimethyl-1H-pyrazol-4-yl)-1H-indole-2-carboxylic acid], in test [2], the EC50 is less than 0.1 µM. Also, the IC50 is no more than 1 µM in the test on MV-4-11 cells and greater than 31.6 µM with ARH-77 cells.
As to `Cc1nn(C)c(C)c1-c1c(Cl)ccc2c(CCCOc3cccc4cc(F)ccc34)c(C(=O)O)n(CCN3CCN(C(=O)COc4c(Cl)ccc5c4CN(C4CCC(=O)NC4=O)C5=O)CC3)c12` (stereo not shown) [Compound 345, 6-Chloro-1-{2-[4-(2-{[5-chloro-2-(2,6-dioxopiperidin-3-yl)-1-oxo-2,3-dihydro-1H-isoindol-4-yl]oxy}acetyl)piperazin-1-yl]ethyl}-3-{3-[(6-fluoronaphthalen-1-yl)oxy]propyl}-7-(1,3,5-trimethyl-1H-pyrazol-4-yl)-1H-indole-2-carboxylic acid], the EC50 in test [2] is less than 0.1 µM. Besides, the IC50 with MV-4-11 cells was no more than 0.1 µM; in the test with ARH-77 cells it was greater than 10 µM.
The like results for `Cc1nn2c(c1-c1c(F)ccc3c(CCCOc4cccc5cc(F)ccc45)c(C(=O)O)n(CCN4CCN(C(=O)COc5cccc6c5CN(C5CCC(=O)NC5=O)C6=O)CC4)c13)OCC2` (stereo not shown) [Compound 351, 1-{2-[4-(2-{[2-(2,6-dioxopiperidin-3-yl)-1-oxo-2,3-dihydro-1H-isoindol-4-yl]oxy}acetyl)piperazin-1-yl]ethyl}-6-fluoro-3-{3-[(6-fluoronaphthalen-1-yl)oxy]propyl}-7-{6-methyl-2H,3H-pyrazolo[3,2-b][1,3]oxazol-7-yl}-1H-indole-2-carboxylic acid] were, in that order, less than 0.01 µM, no more than 0.316 µM and greater than 31.6 µM.
